Test [1] has as its system Ba/F3-c-KIT(D816V). Briefly: Proliferation inhibitory activity on Ba/F3 cell (CellTiter-Glo, 72 hours), c-KIT(D816V). It counts as cell-based. The following applies: Mus musculus, BaF3, read-out: Ba/F3 (nM) c-KIT (D816V) (GI50 class). Summed up: (§1)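 Ba/F3 lines dependent on the indicated kinase, seeded at 3×10^3 cells/well, treated with 12 three-fold dilutions at 0.00005–10 μM final for 72 h at 37 °C. Viability read by CellTiter-Glo luminescence relative to DMSO vehicle; GI50 derived from curve fit.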
(In ATP-based viability assays light output follows the ATP content of the culture.)

In test [2] the target is T1, human PDGFR-β(wt) (Homo sapiens, UniProt P09619).
T1 construct: purchased Signalchem P13-11G
T1 sequence (P09619 33-1106): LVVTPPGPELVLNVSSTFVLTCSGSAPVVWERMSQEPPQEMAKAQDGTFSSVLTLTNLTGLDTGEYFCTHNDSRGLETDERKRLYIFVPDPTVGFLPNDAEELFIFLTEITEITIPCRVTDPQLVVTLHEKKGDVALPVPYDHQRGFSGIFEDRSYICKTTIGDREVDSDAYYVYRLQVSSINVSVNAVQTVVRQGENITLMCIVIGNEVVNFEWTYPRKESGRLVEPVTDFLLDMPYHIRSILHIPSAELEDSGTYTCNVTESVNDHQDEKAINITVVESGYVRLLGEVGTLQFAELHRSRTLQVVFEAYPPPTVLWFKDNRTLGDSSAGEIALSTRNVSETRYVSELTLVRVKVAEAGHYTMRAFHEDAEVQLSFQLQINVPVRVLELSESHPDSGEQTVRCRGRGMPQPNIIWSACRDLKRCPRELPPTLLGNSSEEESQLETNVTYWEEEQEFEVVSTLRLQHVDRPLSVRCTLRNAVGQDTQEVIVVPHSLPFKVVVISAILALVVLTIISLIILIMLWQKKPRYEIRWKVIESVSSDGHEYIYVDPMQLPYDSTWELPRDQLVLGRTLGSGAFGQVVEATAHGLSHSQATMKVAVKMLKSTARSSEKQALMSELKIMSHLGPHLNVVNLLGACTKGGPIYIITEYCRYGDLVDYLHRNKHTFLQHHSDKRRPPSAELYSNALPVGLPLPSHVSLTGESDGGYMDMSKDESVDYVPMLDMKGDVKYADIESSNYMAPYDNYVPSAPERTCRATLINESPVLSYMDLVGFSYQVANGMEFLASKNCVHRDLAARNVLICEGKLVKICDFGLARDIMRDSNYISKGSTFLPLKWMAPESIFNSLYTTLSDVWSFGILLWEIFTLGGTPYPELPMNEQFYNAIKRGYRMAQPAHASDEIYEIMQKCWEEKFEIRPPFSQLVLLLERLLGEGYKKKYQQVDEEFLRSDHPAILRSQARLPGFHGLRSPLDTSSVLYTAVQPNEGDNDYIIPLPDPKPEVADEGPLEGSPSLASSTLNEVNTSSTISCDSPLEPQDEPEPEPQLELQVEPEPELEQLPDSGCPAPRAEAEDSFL
Nature of the test: Enzyme inhibitory activity, ADP-Glo kinase assay, PDGFR-β(wt). It counts as biochemical. The settings on record: read-out: PDGFR-β (IC50 class). Summed up:
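Purified human kinases incubated with ATP and substrate 1–2 h at 25 °C in 40 mM Tris-HCl pH 7.4, 20 mM MgCl2, BSA, DTT, compound over 12 concentrations (10–0.00005645 μM final). ADP formed quantified by ADP-Glo luminescence; IC50 from inhibition versus DMSO control, reported in bins A–D.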

In test [3] the target is c-KIT D816V (Homo sapiens, UniProt P10721, D816V). Nature of the test: Enzyme inhibitory activity, ADP-Glo kinase assay, c-KIT(D816V). Details: purchased Signalchem C06-12LG. The settings on record: read-out: c-KIT (D816V) (IC50 class). The format is biochemical. The procedure: (§2) In order to evaluate the inhibitory activity of the compounds synthesized according to the above examples on PDGFR-α(wt), PDGFR-β(wt), c-KIT(wt), and c-KIT(D816V) kinases, the following method was performed. The compounds of examples were reacted with purified human PDGFR-α(wt) (Signalchem #P12-18G) enzyme, human PDGFR-β(wt) (Signalchem #P13-11G) enzyme, human c-KIT(wt) (Signalchem #K06-11BG) enzyme, human c-KIT(D816V) (Signalchem #C06-12LG) enzyme, and the enzyme inhibitory abilities were evaluated by the following method.
Sequence of c-KIT D816V (P10721 26-976 D816V): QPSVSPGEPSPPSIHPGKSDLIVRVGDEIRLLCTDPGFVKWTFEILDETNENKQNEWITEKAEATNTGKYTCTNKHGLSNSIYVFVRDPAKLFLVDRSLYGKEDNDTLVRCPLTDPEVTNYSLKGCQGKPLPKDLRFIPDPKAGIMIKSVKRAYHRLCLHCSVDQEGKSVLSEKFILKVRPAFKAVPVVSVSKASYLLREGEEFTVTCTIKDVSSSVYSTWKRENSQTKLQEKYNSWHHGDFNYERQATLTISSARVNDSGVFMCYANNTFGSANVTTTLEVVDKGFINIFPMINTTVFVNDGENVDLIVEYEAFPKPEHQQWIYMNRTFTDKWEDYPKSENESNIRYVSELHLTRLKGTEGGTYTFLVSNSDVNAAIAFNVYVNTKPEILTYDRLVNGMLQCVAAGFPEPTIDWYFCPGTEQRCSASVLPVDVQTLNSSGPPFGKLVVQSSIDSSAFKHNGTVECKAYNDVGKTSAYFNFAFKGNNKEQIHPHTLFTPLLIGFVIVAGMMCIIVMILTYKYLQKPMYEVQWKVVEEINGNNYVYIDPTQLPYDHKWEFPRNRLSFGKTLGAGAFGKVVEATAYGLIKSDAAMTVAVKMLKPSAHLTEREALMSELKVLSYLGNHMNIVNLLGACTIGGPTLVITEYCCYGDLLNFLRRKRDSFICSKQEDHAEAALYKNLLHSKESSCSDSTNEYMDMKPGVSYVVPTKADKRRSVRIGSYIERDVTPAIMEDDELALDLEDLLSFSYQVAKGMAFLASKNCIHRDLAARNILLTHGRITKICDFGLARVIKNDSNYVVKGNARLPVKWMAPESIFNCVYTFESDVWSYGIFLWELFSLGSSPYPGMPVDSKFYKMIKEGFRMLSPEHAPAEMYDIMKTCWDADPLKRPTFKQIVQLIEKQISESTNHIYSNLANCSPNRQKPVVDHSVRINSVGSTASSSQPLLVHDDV
(§3) The reaction buffer was used as a composition of 40 mM Tris-HCl pH7.4, 20 mM MgCl2, 0.5 mg/ml BSA, 50 μM DTT, and the reactions of all the tests were carried out on the reaction buffer. The compound was diluted in 12 steps using a serial dilution method from a 10 mM DMSO stock, and the enzyme activity was measured at a final compound concentration of 10˜0.00005645 μM. During the test, the enzyme activity was confirmed using in vitro ADP-Glo™ kinase assay (Promega) after reacting with the proper concentration of human PDGFR-α(wt) enzyme, human PDGFR-β(wt), human c-KIT(wt) enzyme, and human c-KIT(D816V) enzyme with purified ATP and enzyme substrate at 25° C. for 1˜2 hours. At a ratio of 2:2:1, an enzyme-active reaction solution, an ADP-Glo reaction solution, and an enzyme-active detection solution were reacted to measure the inhibition of the enzyme's activity with luminoscence. Based on the […] of the enzyme activity of the solvent control that was not treated with the compound, the degree of enzyme activity inhibition was calculated according to the treatment concentration of each compound, and the concentration of each compound that inhibits 50% of enzyme activity was determined as IC50 (nM) value and the value was obtained by using GraphPad Prism 8.3.0 (GraphPad software Inc., San Diego) software. (A: IC50≤50 nM; B: 50 nM<IC50≤100 nM; C: 100 nM<IC50≤500 nM; D: IC50>500 nM).

In test [4] the target is T2, human c-KIT(wt) (Homo sapiens, UniProt P10721).
T2 construct: purchased Signalchem K06-11BG
T2 sequence (P10721 26-976): as the sequence (P10721 26-976 D816V) above, with V791D counted along it
Nature of the test: Enzyme inhibitory activity, ADP-Glo kinase assay, c-KIT(wt). The format is biochemical. The settings on record: read-out: c-KIT (WT) (IC50 class). As to the method: as §2, §3
A general note: In ADP-Glo the light output rises with the ADP produced.

The test system of test [5] is c-KIT V560G/D816V. Nature of the test: Proliferation inhibitory activity on Ba/F3 cell (CellTiter-Glo, 72 hours), c-KIT V560G/D816V. It counts as cell-based. The following applies: Mus musculus, BaF3, c-KIT V560G/D816V cells, read-out: Cell (nM) c-KIT V560G/D816V (GI50 class). The essentials:
as §1

Test [6] has as its target T3, human PDGFR-α(wt) (Homo sapiens, UniProt P16234).
T3 construct: purchased Signalchem P12-18G
Nature of the test: Enzyme inhibitory activity, ADP-Glo kinase assay, PDGFR-α(wt). The format is biochemical. The following applies: read-out: PDGFR-α (IC50 class). As to the method: as §2, §3

Test [7] concerns Ba/F3-TEL-PDGFRα(WT). Nature of the test: Proliferation inhibitory activity on Ba/F3 cell (CellTiter-Glo, 72 hours), PDGFR-α. It counts as cell-based. The following applies: Mus musculus, BaF3, read-out: Ba/F3 (nM) Tel-PDGFRα (GI50 class). The procedure: (§4) Ba/F3-TEL-PDGFRα(WT), Ba/F3-TEL-PDGFβ(WT), Ba/F3-c-KIT(D816V) (Kyinno, #KC-0138), c-KIT V560G/D816V, c-KIT D814Y were seeded at 3×10^3/100 μl/well in a clear bottom white 96-well plate. A culture solution containing compounds of 12 concentrations (0.00001-2 mM) serially diluted in 3 folds and the DMSO control group was added at 0.5 μl/well each to a final concentration of 0.00005-10 μM, and then incubated in a CO2 incubator at 37° C. for 72 hours. After 72 hours, the plate treated with the compound was taken out, CellTiter-Glo® Assay (Promega) solution was treated with 100 μl/well, followed by mixing well. After mixing well for about 10 minutes at room temperature, […] was measured using a microplate reader. The data were presented as percentages in proportion to treated cells based on the vehicle, GI50 (nM) values were calculated using GraphPad Prism 8.3.0 (GraphPad software Inc., San Diego).
(§5) The inhibitory activities of Ba/F3 expressing PDGFR-α, PDGFR-β, c-KIT(D816V), c-KIT V560G/D816V, and c-KIT D814Y measured as described above were measured and shown in Table 7 below (A: GI50≤200 nM; B: 200 nM<GI50≤500 nM; C: GI50>500 nM).

Test [8] concerns Ba/F3-TEL-PDGFβ(WT). Briefly: Proliferation inhibitory activity on Ba/F3 cell (CellTiter-Glo, 72 hours), PDGFR-β. The format is cell-based. The following applies: Mus musculus, BaF3, read-out: Ba/F3 (nM) Tel-PDGFRβ (GI50 class). The essentials:
as §1

The test system of test [9] is c-KIT D814Y. Nature of the test: Proliferation inhibitory activity on Ba/F3 cell (CellTiter-Glo, 72 hours), c-KIT D814Y. It counts as cell-based. The following applies: Mus musculus, BaF3, c-KIT D814Y cells, read-out: Cell (nM) c-KIT D814Y (GI50 class). As to the method:
as §4, §5

Structures are written as SMILES. A value given as a limit tells only on which side of the number the result lay.

T3 sequence (P16234 24-1089): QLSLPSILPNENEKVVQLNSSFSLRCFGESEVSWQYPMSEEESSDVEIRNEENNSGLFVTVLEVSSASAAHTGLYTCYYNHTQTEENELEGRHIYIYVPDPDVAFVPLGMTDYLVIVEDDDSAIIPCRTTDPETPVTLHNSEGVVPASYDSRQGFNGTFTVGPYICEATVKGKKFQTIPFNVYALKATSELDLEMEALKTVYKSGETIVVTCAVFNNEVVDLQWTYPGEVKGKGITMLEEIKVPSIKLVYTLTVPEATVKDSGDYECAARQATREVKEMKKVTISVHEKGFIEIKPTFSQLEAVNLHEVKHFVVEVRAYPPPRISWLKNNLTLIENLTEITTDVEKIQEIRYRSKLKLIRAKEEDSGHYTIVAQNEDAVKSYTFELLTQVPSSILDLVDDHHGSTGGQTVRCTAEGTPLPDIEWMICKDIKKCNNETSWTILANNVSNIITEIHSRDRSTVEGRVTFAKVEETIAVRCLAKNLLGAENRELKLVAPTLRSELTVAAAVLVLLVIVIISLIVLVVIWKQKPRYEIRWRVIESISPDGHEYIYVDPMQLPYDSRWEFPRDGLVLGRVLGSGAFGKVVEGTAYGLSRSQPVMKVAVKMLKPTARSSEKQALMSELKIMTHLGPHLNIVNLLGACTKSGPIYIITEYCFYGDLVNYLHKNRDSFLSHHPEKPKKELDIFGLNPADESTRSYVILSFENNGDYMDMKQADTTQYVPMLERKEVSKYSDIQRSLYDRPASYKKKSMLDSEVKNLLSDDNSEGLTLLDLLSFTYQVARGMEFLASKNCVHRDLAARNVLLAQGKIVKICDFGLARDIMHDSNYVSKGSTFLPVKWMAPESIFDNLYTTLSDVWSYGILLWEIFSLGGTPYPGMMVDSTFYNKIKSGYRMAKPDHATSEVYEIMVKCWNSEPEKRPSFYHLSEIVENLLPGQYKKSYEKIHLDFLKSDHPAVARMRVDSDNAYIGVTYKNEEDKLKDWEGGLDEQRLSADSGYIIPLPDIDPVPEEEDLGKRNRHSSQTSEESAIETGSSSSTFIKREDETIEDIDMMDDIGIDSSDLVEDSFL

Broadly, the IC50 is the concentration that inhibits the measured activity by half. For `COc1cc2c(-c3ccc(NC(=O)Cc4ccc(C(F)(F)F)cc4)cc3)ncnc2cc1OC1CCN(C)CC1` [Example 2, N-(4-(6-methoxy-7-((1-methylpiperidin-4-yl)oxy)quinazolin-4-yl)phenyl)-2-(4-(trifluoromethyl)phenyl)acetamide], the GI50 in test [1] was not above 200 nM; in [5], 200 to 500 nM; in test [7], not above 200 nM; in test [8], not above 200 nM. Moreover, the half-inhibitory concentration (IC50) in test [2], in [3], in [4] and in [6] was not above 50 nM throughout.
In the case of `CCN(CC)CCOc1cc2c(-c3ccc(NC(=O)Cc4ccc(F)cc4)cc3)ncnc2cc1OC` [Example 122, N-(4-(6-(2-(diethylamino)ethoxy)-7-methoxyquinazolin-4-yl)phenyl)-2-(4-fluorophenyl)acetamide], the half-inhibitory concentration (IC50) in test [2] is 50 to 100 nM; in [3], not above 50 nM; in test [4] it was not above 50 nM; in [6], not above 50 nM. The GI50 in test [7] and in test [8] was not above 200 nM in each case.
For `COc1cc2ncnc(-c3ccc(NC(=O)Cc4ccc(C(F)(F)F)cc4)cc3)c2cc1OC1CCNCC1` [Example 140, N-(4-(7-methoxy-6-(piperidin-4-yloxy)quinazolin-4-yl)phenyl)-2-(4-(trifluoromethyl)phenyl)acetamide], the GI50 in [1] was not above 200 nM; in test [5] it was more than 500 nM; in test [9], more than 500 nM; in test [7], not above 200 nM; in test [8] it was not above 200 nM. Also, the half-inhibitory concentration (IC50) in test [2] and in test [6] was not above 50 nM each time.
On to `COCCOc1cc2ncnc(-c3ccc(NC(=O)Cc4ccc(C(F)(F)F)cc4)cc3)c2cc1OCCOC` [Example 57, N-(4-(6,7-bis(2-methoxyethoxy)quinazolin-4-yl)phenyl)-2-(4-(trifluoromethyl)phenyl)acetamide], for which the IC50 in test [2], in test [3], in [4] and in [6] was not above 50 nM in each case. Besides, the GI50 in test [5], in test [7] and in test [8] was not above 200 nM throughout.
For `CCN(CC)CCCOc1cc2ncnc(-c3ccc(NC(=O)Cc4ccc(C(F)(F)F)cc4)cc3)c2cc1OC` [Example 11, N-(4-(7-(3-(diethylamino)propoxy)-6-methoxyquinazolin-4-yl)phenyl)-2-(4-(trifluoromethyl)phenyl)acetamide], the GI50 in test [1], in test [5], in [9], in test [7] and in [8] was not above 200 nM throughout. The concentration for half-maximal inhibition (IC50) in [2], in test [3], in test [4] and in [6] was not above 50 nM each time.
For `CCN(CC)CCOc1cc2ncnc(-c3ccc(NC(=O)Cc4ccc(C(F)(F)F)cc4)cc3)c2cc1OC` [Example 1, N-(4-(7-(2-(diethylamino)ethoxy)-6-methoxyquinazolin-4-yl)phenyl)-2-(4-(trifluoromethyl)phenyl)acetamide], the GI50 in [1], in test [5], in test [7] and in test [8] was not above 200 nM in each case. Moreover, the IC50 in test [2], in test [3], in test [4] and in test [6] was not above 50 nM throughout.
With `COc1cc2c(-c3ccc(NC(=O)Cc4ccc(C(F)(F)F)cc4)cc3)ncnc2cc1OCCn1cccn1` [Example 30, N-(4-(7-(2-(1H-pyrazol-1-yl)ethoxy)-6-methoxyquinazolin-4-yl)phenyl)-2-(4-(trifluoromethyl)phenyl)acetamide], the GI50 in test [1], in [5] and in test [9] was not above 200 nM in each case. Besides, the IC50 in test [2] was not above 50 nM.
In the case of `COCCN1CCC(COc2cc3ncnc(-c4ccc(NC(=O)Cc5ccc(C(F)(F)F)cc5)cc4)c3cc2OC)CC1` [Example 43, N-(4-(6-methoxy-7-((1-(2-methoxyethyl)piperidin-4-yl)methoxy)quinazolin-4-yl)phenyl)-2-(4-(trifluoromethyl)phenyl)acetamide], the GI50 in test [1], in [5] and in [9] was not above 200 nM in each case. The 50% inhibitory concentration (IC50) in [2] was not above 50 nM.
With `COc1cc2ncnc(-c3ccc(NC(=O)Cc4ccc(C(F)(F)F)cc4)cc3)c2cc1OCCN1CCN(C)CC1` [Example 131, N-(4-(7-methoxy-6-(2-(4-methylpiperazin-1-yl)ethoxy)quinazolin-4-yl)phenyl)-2-(4-(trifluoromethyl)phenyl)acetamide], the GI50 was not above 200 nM in test [1], 200 to 500 nM in [5] and 200 to 500 nM in test [9]. In addition, in [2], the 50% inhibitory concentration (IC50) was not above 50 nM.
On to `CCN1CCCC(COc2cc3ncnc(-c4ccc(NC(=O)Cc5ccc(C(F)(F)F)cc5)cc4)c3cc2OC)C1` (stereo not drawn) [Example 18, N-(4-(7-((1-ethylpiperidin-3-yl)methoxy)-6-methoxyquinazolin-4-yl)phenyl)-2-(4-(trifluoromethyl)phenyl)acetamide], for which the GI50 in test [1], in test [5], in test [9] and in test [8] was not above 200 nM in each case.
Turning to `CCN1CCC(COc2cc3ncnc(-c4ccc(NC(=O)Cc5ccc(C(F)(F)F)cc5)cc4)c3cc2OC)CC1` [Example 4, N-(4-(7-((1-ethylpiperidin-4-yl)methoxy)-6-methoxyquinazolin-4-yl)phenyl)-2-(4-(trifluoromethyl)phenyl)acetamide], the GI50 in test [1], in test [5], in test [9] and in [8] was not above 200 nM in each case. In test [2], the 50% inhibitory concentration (IC50) was not above 50 nM.

Values taken from patent US20260138959A1, “QUINAZOLINE DERIVATIVE COMPOUND AND USE THEREOF” (VORONOI INC., priority 2021, published 2026).
